Measured values: patent US20070197646A1, “SUBSTITUTED TARAXASTANES USEFUL FOR TREATING VIRAL INFECTIONS” (ACHILLION PHARMACEUTICALS, INC., priority 2006, published 2007)

Legend:
[1] = tested on: HIV-1; experiment: Inhibition of early phase virus replication (MAGI cell β-gal indicator assay); format: cell-based; details: Human immunodeficiency virus 1; MAGI cells, MOI of 0.00125
Method: (§1) Virology studies are preformed to assess the antiviral potency substituted heterobetulinic acids. The antiviral effect of these compounds is evaluated by parallel studies of inhibition of viral replication and cell viability. Viruses and cells for use in these assays may be obtained from the NIH AIDS Reagent Program.
The effect of compounds on the early phase virus replication, from virus particle attachment through early gene, Tat expression, are evaluated using a CD4-positive LTR-β-galatosidase-expressing HeLa (MAGI) cell indicator line. This assay, described previously to assess the level of β-gal expression, has been modified and adopted in our laboratory. β-gal levels are quantified by photon detection assay, with virus infected cells that are not treated with a capsid formation inhibitor giving the highest level of expression. […]
MAGI Cells are trypsinization and counted using the trepan blue exclusion method, and resuspended at a pre-determined concentration (usually 2×10^4 cells/well) in 10% FBS complete RPMI 1640. […]
The viruses are diluted to a pre-determined MOI/well, typically 0.01 to 1, in Pre-MAGI media plus 20 μg/well DEAE-dextran. […]
Plates are incubated at room temperature (25° C.) for 60-90 minutes or until constant light emission is reached. Plate(s) are read in a luminometer and measured for 0.1-1.0 sec/well.

[2] = tested on: mock-infected cells; experiment: Assessment of cytotoxicity (cell viability in parallel); format: cell-based
Method: as §1
Plates are incubated at 37° C. in a humidified CO2 incubator for six days. Following incubation of the HIV-1 infected cells with the compound cell viability is assessed using a calorimetric assay of metabolic activity, such as an XTT, MTT or WST-1 assay, or a BrdU incorporation assay. Cytotoxicity of the compound is determined in parallel by measurement of the viability of mock-infected cells treated with the compound. Uninfected cells without compounds are used for a 100% viability control. Infected cells to which no compound is added provide a value for 100% of cell death due to viral infection. The number of surviving or viable cells is quantified by a tetrazolium-based colorimetric method using the CellTiter96 reagent (Promega, Madison, Wis.).

CC1=CC[C@]2(C(=O)O)CC[C@]3(C)[C@H](CC[C@@H]4[C@@]5(C)CCC(OC(=O)CC(C)(C)C(=O)O)C(C)(C)[C@@H]5CC[C@]43C)[C@H]2[C@@H]1C (stereo partly shown) [Compound 11]
EC50 [1]: < 2 µM | cytotoxicity [2]: Neither compound was cytotoxic

CC1=CC[C@]2(CO)CC[C@]3(C)[C@H](CC[C@@H]4[C@@]5(C)CC[C@H](OC(=O)CC(C)(C)C(=O)O)C(C)(C)[C@@H]5CC[C@]43C)[C@H]2[C@@H]1C [Compound 12]
EC50 [1]: < 0.1 µM | cytotoxicity [2]: Neither compound was cytotoxic
